Laboratory results: patent US12497405B2, “Bicyclic heterocycle compounds methods of use thereof for the treatment of herpes viruses” (Merck Sharp & Dohme LLC, priority 2019, dated 2025)
Read-outs that look alike come from different tables or passages of the source.

Key:
[1] = molecular target: varicella zoster virus DNA polymerase (Varicella-zoster virus (strain Dumas) (HHV-3) (Human herpesvirus 3), UniProt P09252); test: VZV polymerase assay (AlphaLISA); assay type: biochemical; settings: VZV polymerase 0.4 nM, 30 min pre-incubation, 60 minute at 37° C.
Procedure: (§1) Human cytomegalovirus and varicella zoster virus DNA polymerases were expressed via baculovirus vector in SF21 cells and purified. Heterodimeric nucleic acid substrate used in the herpesvirus polymerase reactions were generated by annealing a 59-mer template to a 17-mer digoxigenin-labeled primer. Polymerase (HCMV final concentration of 0.2 nM; VZV final concentration of 0.4 nM) was combined with an inhibitor compound or DMSO in assay buffer (10 mM HEPES, pH 7.5, 25 mM KCl, 25 mM NaCl, 5 mM MgCl2, 5% glycerol, 0.67 mg/ml bovine serum albumin, and 1 mM tris(2-carboxyethyl)phosphine)), and this mixture was pre-incubated for 30 minutes at room temperature in 384-well microtiter plates. The polymerization reaction was initiated by the addition of template/primer substrate (final concentration: 1.6 nM), and dNTPs (final concentration: 24 nM dCTP, 24 nMdGTP, 16 nM dATP, 16 nM dTTP, and 0.8 nM biotin-dUTP). After a 60 minute incubation period at 37° C., the reactions were terminated using quench buffer (25 mM HEPES pH 7.5, 100 mM NaCl, 0.25% Tween-20, 12 mM EDTA, and 1 mg/ml bovine serum albumin). Incorporation of biotinylated UTP was detected with 2.5-5 μg/mL anti-DIG AlphaLISA acceptor beads and 5-10 μg/mL streptavidin AlphaLISA donor beads (PerkinElmer). Compound effects were normalized to the window defined by the controls (DMSO only and pre-quenched wells), and were fit using a 4-parameter algorithm to report an IC50.

[2] = molecular target: Human cytomegalovirus DNA polymerase (Human cytomegalovirus (strain AD169) (HHV-5) (Human herpesvirus 5), UniProt P08546); test: CMV polymerase assay (AlphaLISA); assay type: biochemical; settings: HCMV polymerase 0.2 nM, 30 min pre-incubation, 60 minute at 37° C.
Procedure: as §1

HSV1 = test: Viral qPCR assay, HSV1; assay type: cell-based; settings: infected cells, viral genome copies by qPCR normalized to PPIA, read-out: HSV1 Cell EC50
Procedure: (§2) MRC5 cells, Vero cells, and MeWo cells were obtained from ATCC, and were maintained at 37° C./5% CO2/90% relative humidity in Minimal Essential Medium with 10% fetal bovine serum, […] L-glutamine, 100 units/ml penicillin and 100 ug/ml streptomycin. Assay plates were prepared by dispensing compounds dissolved in DMSO into wells of 384 well collagen-coated plates using an ECHO acoustic dispenser. Each test compound was tested in a 10-point, serial 3-fold dilution. Controls included uninfected cells and infected cells treated only with DMSO. Assays were initiated by mixing selected cells, in suspension, with virus, and dispensing 50 μl/well infected cells to pre-plated compounds. Plates were incubated at 37° C./5% CO2/90% relative humidity for ˜72 hrs to permit genomic replication, and infected cells were lysed by the addition of an equal volume of lysis buffer (10 mM Tris-HCl, pH8, 50 mM KCl, 2 mM MgCl2, 0.45% NP-40, 0.45% Tween-20, and 100 µg/ml proteinase K). An aliquot of the lysate was then transferred to a 384-well PCR plate and incubated at 56° C. for 1 hour, and then at 95° C. for 10 minutes. Levels of the selected viral gene and of the cellular control, PPIA, were measured in separate 10 μl qPCR assays using TaqMan® Gene Expression Master Mix (Applied Biosystems), and an 7900HT Fast Real-Time PCR System with 384-Well Block Module. 7-point, serial 10-fold dilutions of a plasmid standard were run on each plate to generate a standard curve, and genome copies numbers were calculated by plotting experimental Ct onto linear regression of the standard curve. Viral genome copy numbers were normalized by cellular control copy number, and compound effects were normalized to the window defined by the controls. Calculated % effects were fit using a 4-parameter algorithm, and EC50 was reported.

CMV = test: Viral qPCR assay, CMV; assay type: cell-based; settings: infected cells, viral genome copies by qPCR normalized to PPIA, read-out: CMV Cell EC50
Procedure: as §2

HSV2 = test: Viral qPCR assay, HSV2; assay type: cell-based; settings: infected cells, viral genome copies by qPCR normalized to PPIA, read-out: HSV2 Cell EC50
Procedure: as §2

SMILES	IC50 [1] [µM]	IC50 [2] [µM]	EC50 (HSV1; Human alphaherpesvirus 1, 72 h) [µM]	EC50 (CMV; Human betaherpesvirus 5, 72 h) [µM]	EC50 (HSV2; Human alphaherpesvirus 2, 72 h) [µM]	EC50 (HSV1; ~72 hrs) [µM]	EC50 (CMV; ~72 hrs) [µM]	EC50 (HSV2; ~72 hrs) [µM]
CC(c1ccc(Cl)cc1)n1ccc2ncc(O[C@H]3CCN4C(=O)OC[C@@H]4C3)cc2c1=O (single isomer, unassigned) [Example 30]	0.157	0.207						
CC(O)Cc1nc2ccn(Cc3ccc(Cl)cc3)c(=O)c2cc1O[C@H]1CCN2C(=O)OC[C@@H]2C1 (single isomer, unassigned) [Example 33]	0.013	0.0074	0.266	0.156	0.234			
CC(=O)N1CC[C@@H](Oc2cnc3ccn(Cc4ccc(Cl)cc4)c(=O)c3c2)C[C@H]1C (single isomer, unassigned) [Example 35]	0.082	0.066						
C[C@@H]1CN(C2CCOC2)CCN1c1ccc2ncn(Cc3ccc(Cl)cc3)c(=O)c2c1 (single isomer, unassigned) [Example 44]	0.144	0.077	1.46	0.521	1.25			
CC1CN(C)CCC1(F)c1ccc2ncn(Cc3ccc(Cl)cc3)c(=O)c2c1 (single isomer, unassigned) [Example 47]	0.102	0.084	1.58	0.55	1.37			
Cc1nc2cc(C3CC(O)C3)c(O[C@H]3CCN4C(=O)OC[C@@H]4C3)cc2c(=O)n1Cc1ccc(Cl)cc1 (single isomer, unassigned) [Example 61]	0.011	0.0065				0.25	0.173	0.202
Cc1nc2cc(C3CC(O)C3)c(O[C@H]3CCN4C(=O)OC[C@@H]4C3)cc2c(=O)n1Cc1ccc(Cl)cc1 (single isomer, unassigned) [Example 62]	0.0048	0.001				0.113	0.057	0.057
Cc1nc2cc(C3CC(C)(O)C3)c(O[C@H]3CCN4C(=O)OC[C@@H]4C3)cc2c(=O)n1Cc1ccc(Cl)cc1 (single isomer, unassigned) [Example 77]	0.0034	0.0031	0.157	0.217	0.165			
Cc1nc2cc(C3CC(N)C3)c(O[C@H]3CCN4C(=O)OC[C@@H]4C3)cc2c(=O)n1Cc1ccc(C#N)cc1 (single isomer, unassigned) [Example 83]	0.02	0.019	6.69	4.6	21			
Cc1nc2cc(C3CCC3O)c(O[C@H]3CCN4C(=O)OC[C@@H]4C3)cc2c(=O)n1Cc1ccc(C#N)cc1 (single isomer, unassigned) [Example 85]	0.011	0.01	0.673	0.338	0.736			
O=C1OC[C@@H]2C[C@@H](Oc3cnc4c(C5CC5)cn(Cc5ccc(Cl)cc5)c(=O)c4c3)CCN12 [Example 1]	0.075	0.069				2.7	1.04	1.54
O=C1OC[C@@H]2C[C@@H](Oc3cc4c(=O)n(Cc5ccc(Cl)cc5)ccc4cn3)CCN12 [Example 2]	0.044	0.049				1.7	0.872	1.05
Cc1nc2cc(CC(C)(C)O)c(O[C@H]3CCN4C(=O)OC[C@@H]4C3)cc2c(=O)n1Cc1ccc(Cl)cc1 [Example 3]	0.0005	0.0024				0.075	0.037	0.055
Cc1nc2cc(-c3cnn(C(F)F)c3)c(O[C@H]3CCN4C(=O)OC[C@@H]4C3)cc2c(=O)n1Cc1ccc(Cl)cc1 [Example 4]	0.0031	0.0011				0.06	0.051	0.026
COc1ncc(-c2cc3nc(C)n(Cc4ccc(Cl)cc4)c(=O)c3cc2O[C@H]2CCN3C(=O)OC[C@@H]3C2)cn1 [Example 5]		0.015				0.131	0.107	0.085
Cc1nc2cc(-c3cnn(C(F)F)c3)c(O[C@H]3CCN4C(=O)OC[C@@H]4C3)cc2c(=O)n1Cc1ccc(C#N)cc1 [Example 6]	0.005	0.0018				0.047	0.056	0.029
O=C1OC[C@@H]2C[C@@H](Oc3cc4c(=O)n(Cc5ccc(Cl)cc5)cnc4nc3-c3cnco3)CCN12 [Example 7]	0.0092	0.0046				0.118	0.104	0.089
CN1CCN(c2ccc3ccn(Cc4ccc(Cl)cc4)c(=O)c3c2)CC1 [Example 21]	7.33	5.85						
O=C1OC[C@@H]2C[C@@H](Oc3ccc4c(CO)cn(Cc5ccc(Cl)cc5)c(=O)c4c3)CCN12 [Example 29]	0.013	0.021	0.256	0.24				
C[C@@H]1CN(C2CCOCC2)CCN1c1ccc2ncn(Cc3ccc(Cl)cc3)c(=O)c2c1 [Example 43]	4.96	9.83						
C[C@@H]1CN(C)CCN1c1cc2c(=O)n(Cc3ccc(Cl)cc3)cnc2cc1-c1cnn(C(F)F)c1 [Example 50]	0.422	0.545						
C[C@@H]1CN(C)CCN1c1cc(CC(C)(C)O)c2ncn(Cc3ccc(Cl)cc3)c(=O)c2c1 [Example 55]	0.139	0.109						
COc1ccc(-c2cc3ncn(Cc4ccc(Cl)cc4)c(=O)c3cc2O[C@H]2CCN3C(=O)OC[C@@H]3C2)cn1 [Example 57]	0.043	0.043						
Cc1nc2cc(C#N)c(N3CCN(C)C[C@H]3C)cc2c(=O)n1Cc1ccc(C#N)cc1F [Example 63]		0.235	3.15	0.498	3.71			
Cc1nc2c(CC(C)(C)O)cc(O[C@H]3CCN4C(=O)OC[C@@H]4C3)cc2c(=O)n1Cc1ccc(Cl)cc1 [Example 67]	0.053	0.022						
